This passage reports Ratio and CC50 results from ChEMBL document CHEMBL1132828, “Pharmacophore identification of a specific CXCR4 inhibitor, T140, leads to development of effective anti-HIV agents with very high selectivity indexes” (Bioorg Med Chem Lett, 2000).

Where a SMILES comes first, the peptide text is derived from it. Bridges are numbered along the chain shown (N, C = ends). [ ]: non-standard residue; d: D form. 2Nal = N[C@@H](Cc1ccc2ccccc2c1)C(=O)O; Cit = NC(=O)NCCC[C@H](N)C(=O)O Bounds are passed on as bounds.

The term CC50 denotes the concentration that lowers cell viability or growth by half.

A short description of assay [1]: Ratio of cytotoxic concentration (CC50) in test-II to that of EC50 of compound. It counts as functional, Homo sapiens.
A short description of assay [2]: Ratio of cytotoxic concentration (CC50) in test-I to that of EC50 of compound. It counts as functional, Homo sapiens.
For assay [3], the system named is MT4. Kind of assay: Compound was tested for reduction of the viability of mock infected MT-4 cell in test-I. It counts as functional. The conditions noted are these: Homo sapiens.
Assay [4] has as its system MT4. The experiment in a line: Compound was tested for reduction of the viability of mock infected MT-4 cell in test-II. It counts as functional. The conditions noted are these: Homo sapiens.

Turning to `NCCCC[C@@H]1NC(=O)[C@H](CCCN=C(N)N)NC(=O)[C@H](Cc2ccc(O)cc2)NC(=O)[C@@H](NC(=O)[C@H](Cc2c[nH]c3ccccc23)NC(=O)[C@H](CCCN=C(N)N)NC(=O)[C@@H](N)CCCN=C(N)N)CSSC[C@@H](C(=O)N[C@@H](CCCN=C(N)N)C(=O)O)NC(=O)[C@H](CCCNC(N)=O)NC(=O)[C@H](CCCN=C(N)N)NC(=O)[C@H](Cc2ccc(O)cc2)NC(=O)[C@@H]2CCCN2C(=O)[C@@H](CCCCN)NC1=O`, the results for the Ratio in assay [1] and in assay [2] were 23000 and >>120, respectively. Besides, the CC50 in the assay with MT4 [3] was more than 1 µM; in the assay on MT4 [4], 190 µM.

Regarding `C[C@@H]1NC(=O)[C@H](CCCN=C(N)N)NC(=O)[C@H](Cc2ccc(O)cc2)NC(=O)[C@@H](NC(=O)[C@H](Cc2ccc3ccccc3c2)NC(=O)[C@H](CCCN=C(N)N)NC(=O)[C@@H](N)CCCN=C(N)N)CSSC[C@@H](C(=O)N[C@@H](CCCN=C(N)N)C(=O)O)NC(=O)[C@H](CCCNC(N)=O)NC(=O)[C@H](CCCN=C(N)N)NC(=O)[C@H](Cc2ccc(O)cc2)NC(=O)[C@@H]2CCCN2C(=O)[C@@H](CCCCN)NC1=O`, in assay [2], the Ratio is listed as more than 1800. The same molecule registered a CC50 in the assay on MT4 [3] of more than 80 µM.

For `NCCCC[C@@H]1NC(=O)[C@H](CCCNC(N)=O)NC(=O)[C@H](Cc2ccc(O)cc2)NC(=O)[C@@H](NC(=O)[C@H](Cc2ccc3ccccc3c2)NC(=O)[C@H](CCCN=C(N)N)NC(=O)[C@@H](N)CCCN=C(N)N)CSSC[C@@H](C(=O)N[C@@H](CCCN=C(N)N)C(=O)O)NC(=O)[C@H](CCCNC(N)=O)NC(=O)[C@H](CCCN=C(N)N)NC(=O)[C@H](Cc2ccc(O)cc2)NC(=O)[C@@H]2CCCN2C(=O)[C@@H](CCCCN)NC1=O`, the values for the Ratio in assay [1] and in assay [2] were 160000 and more than 29000, respectively. The CC50 with MT4 [3] was more than 80 µM; with MT4 [4], 310 µM.

Take `NCCCC[C@@H]1NC(=O)[C@H](CCCN=C(N)N)NC(=O)[C@H](Cc2ccc(O)cc2)NC(=O)[C@@H](NC(=O)[C@H](Cc2ccc3ccccc3c2)NC(=O)[C@H](CCCN=C(N)N)NC(=O)[C@@H](N)CCCN=C(N)N)CSSC[C@@H](C(=O)N[C@@H](CCCNC(N)=O)C(=O)O)NC(=O)[C@H](CCCNC(N)=O)NC(=O)[C@H](CCCN=C(N)N)NC(=O)[C@H](Cc2ccc(O)cc2)NC(=O)[C@@H]2CCCN2C(=O)[C@@H](CCCCN)NC1=O`: the results for the Ratio in assay [1] and in assay [2] were 200 and more than 220, respectively. For the same molecule, the results for the CC50 in the assay on MT4 [3] and with MT4 [4] were more than 40 µM and 180 µM, respectively.

On to `C[C@H](NC(=O)[C@@H](N)CCCN=C(N)N)C(=O)N[C@@H](Cc1ccc2ccccc2c1)C(=O)N[C@H]1CSSC[C@@H](C(=O)N[C@@H](CCCN=C(N)N)C(=O)O)NC(=O)[C@H](CCCNC(N)=O)NC(=O)[C@H](CCCN=C(N)N)NC(=O)[C@H](Cc2ccc(O)cc2)NC(=O)[C@@H]2CCCN2C(=O)[C@@H](CCCCN)NC(=O)[C@H](CCCCN)NC(=O)[C@H](CCCN=C(N)N)NC(=O)[C@H](Cc2ccc(O)cc2)NC1=O`, for which the Ratio in assay [2] was more than 64. The CC50 in the assay with MT4 [3] was more than 80 µM.

For the molecule `C[C@H](NC(=O)[C@H](CCCN=C(N)N)NC(=O)[C@@H](N)CCCN=C(N)N)C(=O)N[C@H]1CSSC[C@@H](C(=O)N[C@@H](CCCN=C(N)N)C(=O)O)NC(=O)[C@H](CCCNC(N)=O)NC(=O)[C@H](CCCN=C(N)N)NC(=O)[C@H](Cc2ccc(O)cc2)NC(=O)[C@@H]2CCCN2C(=O)[C@@H](CCCCN)NC(=O)[C@H](CCCCN)NC(=O)[C@H](CCCN=C(N)N)NC(=O)[C@H](Cc2ccc(O)cc2)NC1=O`, in assay [2], the Ratio is on record as more than 34. In the assay on MT4 [3], the CC50 is more than 80 µM.

As to `C[C@@H]1NC(=O)[C@@H](NC(=O)[C@H](Cc2ccc3ccccc3c2)NC(=O)[C@H](CCCN=C(N)N)NC(=O)[C@@H](N)CCCN=C(N)N)CSSC[C@@H](C(=O)N[C@@H](CCCN=C(N)N)C(=O)O)NC(=O)[C@H](CCCNC(N)=O)NC(=O)[C@H](CCCN=C(N)N)NC(=O)[C@H](Cc2ccc(O)cc2)NC(=O)[C@@H]2CCCN2C(=O)[C@@H](CCCCN)NC(=O)[C@H](CCCCN)NC(=O)[C@H](CCCN=C(N)N)NC1=O`, the Ratio in assay [2] is recorded as more than 230. For the same molecule, in the assay with MT4 [3], the CC50 is more than 80 µM.

Regarding `NCCCC[C@@H]1NC(=O)[C@H](CCCN=C(N)N)NC(=O)[C@H](Cc2ccc(O)cc2)NC(=O)[C@@H](NC(=O)[C@H](Cc2ccc3ccccc3c2)NC(=O)[C@H](CCCN=C(N)N)NC(=O)[C@@H](N)CCCNC(N)=O)CSSC[C@@H](C(=O)N[C@@H](CCCN=C(N)N)C(=O)O)NC(=O)[C@H](CCCNC(N)=O)NC(=O)[C@H](CCCN=C(N)N)NC(=O)[C@H](Cc2ccc(O)cc2)NC(=O)[C@@H]2CCCN2C(=O)[C@@H](CCCCN)NC1=O`, the values for the Ratio in assay [1] and in assay [2] were 18000 and more than 5300, respectively. In addition, the CC50 was more than 80 µM in the assay on MT4 [3] and 280 µM in the assay with MT4 [4].

For `C[C@@H]1NC(=O)[C@H](CCCN=C(N)N)NC(=O)[C@H](Cc2ccc(O)cc2)NC(=O)[C@@H]2CCCN2C(=O)[C@@H](CCCCN)NC(=O)[C@H](CCCCN)NC(=O)[C@H](CCCN=C(N)N)NC(=O)[C@H](Cc2ccc(O)cc2)NC(=O)[C@@H](NC(=O)[C@H](Cc2ccc3ccccc3c2)NC(=O)[C@H](CCCN=C(N)N)NC(=O)[C@@H](N)CCCN=C(N)N)CSSC[C@@H](C(=O)N[C@@H](CCCN=C(N)N)C(=O)O)NC1=O`, the Ratio in assay [2] was 3300. This molecule also displayed a CC50 with MT4 [3] of 55 µM.

As to `C[C@@H]1NC(=O)[C@H](Cc2ccc(O)cc2)NC(=O)[C@@H]2CCCN2C(=O)[C@@H](CCCCN)NC(=O)[C@H](CCCCN)NC(=O)[C@H](CCCN=C(N)N)NC(=O)[C@H](Cc2ccc(O)cc2)NC(=O)[C@@H](NC(=O)[C@H](Cc2ccc3ccccc3c2)NC(=O)[C@H](CCCN=C(N)N)NC(=O)[C@@H](N)CCCN=C(N)N)CSSC[C@@H](C(=O)N[C@@H](CCCN=C(N)N)C(=O)O)NC(=O)[C@H](CCCNC(N)=O)NC1=O`, the Ratio in assay [2] is given as more than 4800. In the assay on MT4 [3], this molecule showed a CC50 of more than 80 µM.

Consider `NCCCC[C@@H]1NC(=O)[C@H](CCCN=C(N)N)NC(=O)[C@H](Cc2ccc(O)cc2)NC(=O)[C@@H](NC(=O)[C@H](Cc2ccc3ccccc3c2)NC(=O)[C@H](CCCN=C(N)N)NC(=O)[C@@H](N)CCCN=C(N)N)CSSC[C@@H](C(=O)N[C@@H](CCCN=C(N)N)C(=O)O)NC(=O)[C@H](CCCNC(N)=O)NC(=O)[C@H](CCCN=C(N)N)NC(=O)[C@H](Cc2ccc(O)cc2)NC(=O)[C@@H]2CCCN2C(=O)[C@@H](CCCNC(N)=O)NC1=O`, for which the results for the Ratio in assay [1] and in assay [2] were 69000 and more than 20000, respectively. The values for the CC50 in the assay on MT4 [3] and in the assay on MT4 [4] were more than 80 µM and 280 µM, respectively.

Take `NCCCC[C@H]1NC(=O)[C@H](CCCNC(N)=O)NC(=O)[C@H](CCCN=C(N)N)NC(=O)[C@H](Cc2ccc(O)cc2)NC(=O)[C@@H](NC(=O)[C@H](Cc2ccc3ccccc3c2)NC(=O)[C@H](CCCN=C(N)N)NC(=O)[C@@H](N)CCCN=C(N)N)CSSC[C@@H](C(=O)N[C@@H](CCCN=C(N)N)C(=O)O)NC(=O)[C@H](CCCNC(N)=O)NC(=O)[C@H](CCCN=C(N)N)NC(=O)[C@H](Cc2ccc(O)cc2)NC(=O)[C@@H]2CCCN2C1=O`: the Ratio in assay [1] was more than 16000; in assay [2], more than 5000. Besides, the CC50 is more than 80 µM with MT4 [3] and 270 µM in the assay on MT4 [4].

With `C[C@@H]1NC(=O)[C@@H]2CCCN2C(=O)[C@@H](CCCCN)NC(=O)[C@H](CCCCN)NC(=O)[C@H](CCCN=C(N)N)NC(=O)[C@H](Cc2ccc(O)cc2)NC(=O)[C@@H](NC(=O)[C@H](Cc2ccc3ccccc3c2)NC(=O)[C@H](CCCN=C(N)N)NC(=O)[C@@H](N)CCCN=C(N)N)CSSC[C@@H](C(=O)N[C@@H](CCCN=C(N)N)C(=O)O)NC(=O)[C@H](CCCNC(N)=O)NC(=O)[C@H](CCCN=C(N)N)NC1=O`, in assay [2], the Ratio is more than 4500. This molecule returned a CC50 in the assay with MT4 [3] of more than 80 µM.

With `C[C@H]1NC(=O)[C@H](CCCCN)NC(=O)[C@H](CCCN=C(N)N)NC(=O)[C@H](Cc2ccc(O)cc2)NC(=O)[C@@H](NC(=O)[C@H](Cc2ccc3ccccc3c2)NC(=O)[C@H](CCCN=C(N)N)NC(=O)[C@@H](N)CCCN=C(N)N)CSSC[C@@H](C(=O)N[C@@H](CCCN=C(N)N)C(=O)O)NC(=O)[C@H](CCCNC(N)=O)NC(=O)[C@H](CCCN=C(N)N)NC(=O)[C@H](Cc2ccc(O)cc2)NC(=O)[C@@H]2CCCN2C1=O`, in assay [2], the Ratio is more than 5200. The CC50 in the assay with MT4 [3] is more than 80 µM.

As to `CC(N)C(=O)N[C@@H](CCCN=C(N)N)C(=O)N[C@@H](Cc1ccc2ccccc2c1)C(=O)N[C@H]1CSSC[C@@H](C(=O)N[C@@H](CCCN=C(N)N)C(=O)O)NC(=O)[C@H](CCCNC(N)=O)NC(=O)[C@H](CCCN=C(N)N)NC(=O)[C@H](Cc2ccc(O)cc2)NC(=O)[C@@H]2CCCN2C(=O)[C@@H](CCCCN)NC(=O)[C@H](CCCCN)NC(=O)[C@H](CCCN=C(N)N)NC(=O)[C@H](Cc2ccc(O)cc2)NC1=O` (stereo partly specified), in assay [2], the Ratio is more than 750. The CC50 in the assay on MT4 [3] is more than 40 µM.

With `C[C@H](NC(=O)[C@@H]1CSSC[C@H](NC(=O)[C@H](Cc2ccc3ccccc3c2)NC(=O)[C@H](CCCN=C(N)N)NC(=O)[C@@H](N)CCCN=C(N)N)C(=O)N[C@@H](Cc2ccc(O)cc2)C(=O)N[C@@H](CCCN=C(N)N)C(=O)N[C@@H](CCCCN)C(=O)N[C@H](CCCCN)C(=O)N2CCC[C@H]2C(=O)N[C@@H](Cc2ccc(O)cc2)C(=O)N[C@@H](CCCN=C(N)N)C(=O)N[C@@H](CCCNC(N)=O)C(=O)N1)C(=O)O`, in assay [2], the Ratio is more than 210. Besides, the CC50 in the assay with MT4 [3] is more than 80 µM.

As to `C[C@@H]1NC(=O)[C@@H](CCCCN)NC(=O)[C@H](CCCCN)NC(=O)[C@H](CCCN=C(N)N)NC(=O)[C@H](Cc2ccc(O)cc2)NC(=O)[C@@H](NC(=O)[C@H](Cc2ccc3ccccc3c2)NC(=O)[C@H](CCCN=C(N)N)NC(=O)[C@@H](N)CCCN=C(N)N)CSSC[C@@H](C(=O)N[C@@H](CCCN=C(N)N)C(=O)O)NC(=O)[C@H](CCCNC(N)=O)NC(=O)[C@H](CCCN=C(N)N)NC(=O)[C@H](Cc2ccc(O)cc2)NC1=O` (H-RR[2Nal]CYRK[dK]AYR[Cit]CR-OH; disulfide 4-13), the Ratio in assay [2] was more than 4700. In the assay with MT4 [3], this molecule came in with a CC50 of more than 80 µM.
